Calls of active or inactive are those of the source.
Columns and labels:
[1] = A Cell Based Secondary Assay To Explore Cytotoxicity of Compounds that Sensitize Mycobacterium Tuberculosis to Beta-Lactam Antibiotics.; assay type: functional
[2] = control 3'UTR Renilla luciferase suppression, dose response, counter-screen for Shn3 inhibitor project, cell-based, Clone20-Shn3RL, cherry-picked (AID 624133); assay type: functional
Ion channel NompC = Ion channel NompC (Danio rerio, UniProt Q7T1G6); assay: Fluorescence counterscreen assay for TRPML3 agonists: dose response cell-based high-throughput screening assay to identify agonists of the transient receptor potential channel N1 (TRPN1). [Related pubchem assays: 1526, 1424, 1448 ]; assay type: functional
[3] = HepG2 cell cytotoxicity, dose response, cytotoxicity control for Shn3 inhibitor project, CellTiter-Glo, cherry-picked (AID 624134); assay type: functional, cell-based
Mucolipin-3 = target: T1, Mucolipin-3 (Homo sapiens, UniProt Q8TDD5); assay: Dose response cell-based high-throughput screening assay for agonists of the transient receptor potential channel ML3 (TRPML3). [Related pubchem assays: 1526, 1424, 1448 ]; assay type: functional
T1 sequence (Q8TDD5 whole entry): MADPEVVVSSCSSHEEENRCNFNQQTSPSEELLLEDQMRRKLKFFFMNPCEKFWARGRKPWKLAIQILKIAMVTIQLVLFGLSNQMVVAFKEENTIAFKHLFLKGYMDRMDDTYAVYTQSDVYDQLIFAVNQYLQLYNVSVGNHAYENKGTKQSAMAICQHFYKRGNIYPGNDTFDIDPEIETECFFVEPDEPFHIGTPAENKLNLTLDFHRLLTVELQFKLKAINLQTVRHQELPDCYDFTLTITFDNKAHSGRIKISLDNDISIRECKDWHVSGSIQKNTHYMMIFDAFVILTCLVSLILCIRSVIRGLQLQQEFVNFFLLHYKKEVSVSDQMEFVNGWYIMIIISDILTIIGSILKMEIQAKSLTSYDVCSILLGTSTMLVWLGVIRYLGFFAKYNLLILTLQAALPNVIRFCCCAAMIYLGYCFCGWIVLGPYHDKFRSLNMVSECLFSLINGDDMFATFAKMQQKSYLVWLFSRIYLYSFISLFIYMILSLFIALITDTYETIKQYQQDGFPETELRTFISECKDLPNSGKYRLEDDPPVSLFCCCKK

Cytochrome P450 2C19 = Cytochrome P450 2C19 (Homo sapiens, UniProt P33261); assay: qHTS Assay for Inhibitors and Substrates of Cytochrome P450 2C19. [Related pubchem assays: 410 ]; assay type: ADME; conditions: read-out: Potency
[4] = target: T2, Alkaline phosphatase, tissue-nonspecific isozyme (Homo sapiens, UniProt P05186)
T2 sequence (P05186 whole entry): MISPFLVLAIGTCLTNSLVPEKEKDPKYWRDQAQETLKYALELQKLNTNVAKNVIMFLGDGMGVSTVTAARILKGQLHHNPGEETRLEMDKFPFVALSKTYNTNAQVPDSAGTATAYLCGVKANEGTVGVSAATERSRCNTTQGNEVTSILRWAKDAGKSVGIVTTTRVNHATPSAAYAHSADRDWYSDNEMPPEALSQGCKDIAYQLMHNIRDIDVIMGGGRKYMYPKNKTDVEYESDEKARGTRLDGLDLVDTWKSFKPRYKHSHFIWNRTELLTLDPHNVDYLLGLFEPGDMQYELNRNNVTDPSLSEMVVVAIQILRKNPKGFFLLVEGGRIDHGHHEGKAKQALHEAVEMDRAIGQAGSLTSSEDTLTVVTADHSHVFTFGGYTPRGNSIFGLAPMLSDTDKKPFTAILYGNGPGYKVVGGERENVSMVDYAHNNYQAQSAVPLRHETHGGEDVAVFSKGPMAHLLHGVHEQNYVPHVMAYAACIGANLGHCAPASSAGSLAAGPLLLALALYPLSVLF

Large T antigen = Large T antigen (Simian virus 40, UniProt P03070); assay type: functional, Betapolyomavirus macacae;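 also: Confirmatory-stage PubChem screen for compounds that inhibit SV40 T antigen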
[5] = target: T3, Rac GTPase-activating protein 1 (Homo sapiens, UniProt Q9H0H5); assay: MgcRacGAP GTPase-activating activity inhibitors, confirmation, biochemical, ADP Hunter fluorescence, primary and confirmatory (AID 624330); assay type: functional
T3 sequence (Q9H0H5 whole entry): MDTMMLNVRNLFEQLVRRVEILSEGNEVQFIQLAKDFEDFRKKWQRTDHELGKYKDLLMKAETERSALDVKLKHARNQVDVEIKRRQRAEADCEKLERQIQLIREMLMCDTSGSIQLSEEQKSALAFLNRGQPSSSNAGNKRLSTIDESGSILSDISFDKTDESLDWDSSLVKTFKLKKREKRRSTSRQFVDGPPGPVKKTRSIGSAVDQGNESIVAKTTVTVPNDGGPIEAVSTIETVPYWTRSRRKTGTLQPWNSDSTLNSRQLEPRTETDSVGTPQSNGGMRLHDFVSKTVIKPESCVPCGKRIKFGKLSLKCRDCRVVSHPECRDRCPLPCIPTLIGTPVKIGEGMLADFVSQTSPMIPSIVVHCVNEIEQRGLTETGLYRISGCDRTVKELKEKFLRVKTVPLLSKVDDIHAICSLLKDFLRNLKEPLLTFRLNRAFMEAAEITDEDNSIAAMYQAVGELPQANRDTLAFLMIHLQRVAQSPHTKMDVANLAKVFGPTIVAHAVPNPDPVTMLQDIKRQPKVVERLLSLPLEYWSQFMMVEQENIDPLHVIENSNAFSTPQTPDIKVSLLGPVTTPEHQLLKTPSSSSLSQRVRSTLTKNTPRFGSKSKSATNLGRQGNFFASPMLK

[6] = target: DNA dC->dU-editing enzyme APOBEC-3A (Homo sapiens, UniProt P31941); assay: APOBEC3A DNA deaminase inhibitors, dose response, biochemical (AID 504722); assay type: functional
[7] = target: DNA dC->dU-editing enzyme APOBEC-3G (Homo sapiens, UniProt Q9HC16); assay: Dose Response confirmation of small molecule APOBEC3G DNA Deaminase Inhibitors via a fluorescence-based single-stranded DNA deaminase assay. [Related pubchem assays (depositor defined):AID493012, AID493028]; assay type: functional
NADPH oxidase 1 = target: T4, NADPH oxidase 1 (Homo sapiens, UniProt Q9Y5S8); assay type: functional, cell-based;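 also: Cell-based assay with luminescence read-out, IC50 derived from inhibitor dose-response curves; intracellular ROS from endogenous NOX1 in intact HT29 colon cancer cells; potency of inhibitors that lower the ROS luminescence signal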
T4 sequence (Q9Y5S8 whole entry): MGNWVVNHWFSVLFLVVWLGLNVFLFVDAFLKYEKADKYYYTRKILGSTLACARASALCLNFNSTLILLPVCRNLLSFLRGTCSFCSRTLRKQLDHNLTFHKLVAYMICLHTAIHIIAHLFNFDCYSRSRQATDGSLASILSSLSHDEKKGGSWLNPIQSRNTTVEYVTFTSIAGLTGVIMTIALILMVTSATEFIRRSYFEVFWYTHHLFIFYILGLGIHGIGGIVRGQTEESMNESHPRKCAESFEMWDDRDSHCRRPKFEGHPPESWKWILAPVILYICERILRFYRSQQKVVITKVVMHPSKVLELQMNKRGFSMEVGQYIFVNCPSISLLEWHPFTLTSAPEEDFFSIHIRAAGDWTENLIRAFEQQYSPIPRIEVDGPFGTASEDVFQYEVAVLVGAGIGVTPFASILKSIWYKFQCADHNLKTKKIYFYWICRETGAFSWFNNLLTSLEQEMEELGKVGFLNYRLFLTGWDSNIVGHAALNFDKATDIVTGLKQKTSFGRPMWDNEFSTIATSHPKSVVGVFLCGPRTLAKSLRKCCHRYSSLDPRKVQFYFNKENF

[8] = HepG2 cell cytotoxicity, dose response, cytotoxicity control, plate reader, dry powder samples (AID 1159569); assay type: functional, cell-based;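 also: inhibitor potency with signal falling toward the positive control level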
[9] = HepG2 cell cytotoxicity, dose response, cytotoxicity control, cherry-picked samples (AID 1159577); assay type: functional, cell-based
[10] = P. falciparum Dd2 growth inhibitors, dose response, SYBR Green, cherry-picked samples (AID 1159567); assay type: functional, cell-based
[11] = P. falciparum Dd2 growth inhibitors, dose response, SYBR Green, dry powder samples (AID 1159566); assay type: functional, cell-based;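 also: potency for growth inhibition with lower SYBR green DNA signal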
[12] = P. falciparum ATP4 D1247Y mutant growth inhibitors, dose response, NITD609-resistant line, SYBR Green, dry powder (AID 1159571); assay type: functional, cell-based;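 also: parasites synchronized at ring stage by sorbitol before testing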
[13] = P. falciparum 3D7-ScDHODH growth inhibitors, dose response, SYBR Green, dry powder samples (AID 1159570); assay type: functional, cell-based;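 also: parasite growth measured after 72 hours of compound exposure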
CAAX prenyl protease 2 = target: T5, CAAX prenyl protease 2 (Saccharomyces cerevisiae S288c, UniProt Q03530); assay type: biochemical
T5 sequence (Q03530 whole entry): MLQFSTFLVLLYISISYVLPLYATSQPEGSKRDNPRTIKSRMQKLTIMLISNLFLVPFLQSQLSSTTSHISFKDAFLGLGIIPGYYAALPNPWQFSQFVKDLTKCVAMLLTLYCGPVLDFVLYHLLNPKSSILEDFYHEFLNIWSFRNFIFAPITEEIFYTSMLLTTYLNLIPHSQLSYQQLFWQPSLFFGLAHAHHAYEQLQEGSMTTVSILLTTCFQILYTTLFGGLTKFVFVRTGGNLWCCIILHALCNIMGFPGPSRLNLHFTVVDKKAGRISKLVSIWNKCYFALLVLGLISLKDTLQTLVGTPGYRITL

Fatty acid synthase = Fatty acid synthase (Homo sapiens, UniProt P49327); assay: FAS thioesterase domain inhibitors, dose response, biochemical, kinetic fluorescence intensity (AID 624326); assay type: functional;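 also: rate of fluorescence rise from hydrolysis of a fluorogenic O-methyl fluorescein ester substrate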

Sequence of Ion channel NompC (Q7T1G6 whole entry): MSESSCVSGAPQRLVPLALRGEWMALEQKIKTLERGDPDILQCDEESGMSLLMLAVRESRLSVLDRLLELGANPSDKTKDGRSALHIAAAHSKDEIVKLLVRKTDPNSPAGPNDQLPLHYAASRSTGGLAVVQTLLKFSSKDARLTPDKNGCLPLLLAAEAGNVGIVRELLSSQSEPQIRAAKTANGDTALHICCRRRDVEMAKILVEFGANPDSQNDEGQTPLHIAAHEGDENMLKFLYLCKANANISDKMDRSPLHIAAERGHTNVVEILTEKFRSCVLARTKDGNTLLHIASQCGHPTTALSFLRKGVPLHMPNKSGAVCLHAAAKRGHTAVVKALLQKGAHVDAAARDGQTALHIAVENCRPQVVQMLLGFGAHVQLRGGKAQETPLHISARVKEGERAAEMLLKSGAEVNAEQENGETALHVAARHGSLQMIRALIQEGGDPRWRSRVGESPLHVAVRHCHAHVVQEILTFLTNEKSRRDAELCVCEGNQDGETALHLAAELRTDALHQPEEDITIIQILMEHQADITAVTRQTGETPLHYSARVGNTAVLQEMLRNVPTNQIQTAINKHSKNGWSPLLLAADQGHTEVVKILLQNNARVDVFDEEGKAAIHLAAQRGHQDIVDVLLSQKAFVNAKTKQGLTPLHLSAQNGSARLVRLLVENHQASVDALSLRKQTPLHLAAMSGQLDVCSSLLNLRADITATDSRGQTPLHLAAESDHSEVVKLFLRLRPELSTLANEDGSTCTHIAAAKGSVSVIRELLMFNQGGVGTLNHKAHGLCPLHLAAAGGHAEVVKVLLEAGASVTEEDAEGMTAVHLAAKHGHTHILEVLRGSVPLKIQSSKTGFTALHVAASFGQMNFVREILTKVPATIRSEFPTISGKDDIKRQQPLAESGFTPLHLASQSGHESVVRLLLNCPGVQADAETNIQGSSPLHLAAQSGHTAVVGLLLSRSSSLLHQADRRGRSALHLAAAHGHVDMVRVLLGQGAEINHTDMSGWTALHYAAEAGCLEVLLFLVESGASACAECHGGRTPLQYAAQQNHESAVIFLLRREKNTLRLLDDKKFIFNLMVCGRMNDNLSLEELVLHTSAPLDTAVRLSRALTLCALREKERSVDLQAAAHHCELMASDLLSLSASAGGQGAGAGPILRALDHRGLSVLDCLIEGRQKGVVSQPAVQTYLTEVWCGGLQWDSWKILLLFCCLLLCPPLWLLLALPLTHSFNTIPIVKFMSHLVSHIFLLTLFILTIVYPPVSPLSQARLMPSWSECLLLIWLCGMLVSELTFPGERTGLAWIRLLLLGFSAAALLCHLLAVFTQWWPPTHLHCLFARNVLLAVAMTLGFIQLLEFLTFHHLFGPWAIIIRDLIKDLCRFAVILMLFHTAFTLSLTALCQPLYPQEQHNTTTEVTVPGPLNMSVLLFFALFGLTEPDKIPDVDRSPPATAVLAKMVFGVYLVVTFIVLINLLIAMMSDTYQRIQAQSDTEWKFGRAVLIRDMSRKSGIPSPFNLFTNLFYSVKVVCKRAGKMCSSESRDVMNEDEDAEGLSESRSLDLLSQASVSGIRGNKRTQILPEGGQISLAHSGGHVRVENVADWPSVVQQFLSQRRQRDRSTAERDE
Sequence of Cytochrome P450 2C19 (P33261 whole entry): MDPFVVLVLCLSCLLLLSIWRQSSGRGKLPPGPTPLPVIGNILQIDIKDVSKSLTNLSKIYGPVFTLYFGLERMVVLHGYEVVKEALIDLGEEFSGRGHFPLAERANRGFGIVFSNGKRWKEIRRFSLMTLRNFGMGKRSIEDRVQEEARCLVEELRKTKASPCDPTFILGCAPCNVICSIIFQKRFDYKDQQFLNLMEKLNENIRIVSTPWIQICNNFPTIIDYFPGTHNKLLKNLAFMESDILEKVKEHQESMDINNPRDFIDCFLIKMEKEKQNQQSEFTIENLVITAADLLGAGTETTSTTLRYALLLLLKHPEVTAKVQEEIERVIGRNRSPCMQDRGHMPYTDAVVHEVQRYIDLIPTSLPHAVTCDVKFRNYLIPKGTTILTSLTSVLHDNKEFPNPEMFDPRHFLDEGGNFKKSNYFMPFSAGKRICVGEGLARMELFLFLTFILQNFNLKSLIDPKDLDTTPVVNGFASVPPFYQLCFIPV
Sequence of Large T antigen (P03070 whole entry): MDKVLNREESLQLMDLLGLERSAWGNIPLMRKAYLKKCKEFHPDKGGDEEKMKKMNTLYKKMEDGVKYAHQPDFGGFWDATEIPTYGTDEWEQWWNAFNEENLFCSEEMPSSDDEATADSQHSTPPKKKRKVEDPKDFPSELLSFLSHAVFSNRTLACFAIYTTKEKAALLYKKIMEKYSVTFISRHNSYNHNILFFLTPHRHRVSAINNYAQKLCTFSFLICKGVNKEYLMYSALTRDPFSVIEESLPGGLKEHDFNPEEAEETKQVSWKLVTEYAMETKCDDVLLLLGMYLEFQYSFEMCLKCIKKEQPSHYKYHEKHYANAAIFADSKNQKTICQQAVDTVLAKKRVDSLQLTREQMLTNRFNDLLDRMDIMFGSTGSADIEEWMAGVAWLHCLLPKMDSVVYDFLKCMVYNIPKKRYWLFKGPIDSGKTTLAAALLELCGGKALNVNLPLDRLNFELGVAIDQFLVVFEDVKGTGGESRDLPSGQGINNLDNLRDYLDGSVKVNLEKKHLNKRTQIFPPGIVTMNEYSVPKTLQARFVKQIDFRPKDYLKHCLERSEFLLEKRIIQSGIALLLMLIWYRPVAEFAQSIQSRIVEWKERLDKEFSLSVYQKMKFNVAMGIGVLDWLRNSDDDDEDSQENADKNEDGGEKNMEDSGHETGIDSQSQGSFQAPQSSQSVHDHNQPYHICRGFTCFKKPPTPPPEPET
Sequence of DNA dC->dU-editing enzyme APOBEC-3G (Q9HC16 whole entry): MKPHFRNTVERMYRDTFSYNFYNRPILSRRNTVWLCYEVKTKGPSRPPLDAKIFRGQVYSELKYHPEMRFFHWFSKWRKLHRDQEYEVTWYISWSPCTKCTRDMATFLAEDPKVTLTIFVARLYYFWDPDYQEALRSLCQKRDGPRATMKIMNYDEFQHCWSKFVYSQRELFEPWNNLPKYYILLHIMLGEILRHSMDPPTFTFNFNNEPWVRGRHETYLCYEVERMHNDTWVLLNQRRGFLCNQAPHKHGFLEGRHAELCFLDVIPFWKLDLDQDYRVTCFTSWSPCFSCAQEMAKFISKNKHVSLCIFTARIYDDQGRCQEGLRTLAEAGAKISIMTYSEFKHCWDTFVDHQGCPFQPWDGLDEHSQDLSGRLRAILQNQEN
Sequence of DNA dC->dU-editing enzyme APOBEC-3A (P31941 whole entry): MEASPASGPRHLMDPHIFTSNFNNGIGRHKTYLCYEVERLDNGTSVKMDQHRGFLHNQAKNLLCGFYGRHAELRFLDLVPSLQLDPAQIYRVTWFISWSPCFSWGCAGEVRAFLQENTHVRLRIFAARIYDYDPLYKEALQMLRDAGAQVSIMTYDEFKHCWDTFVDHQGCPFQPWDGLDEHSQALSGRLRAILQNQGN

In the case of `Nc1c(Cl)cc(-c2csc(N3CCCC3c3nc4cc(Cl)c(N5CCCCC5)cc4n3CCCO)n2)cc1Cl` (stereo unspecified), the CC50 [1] is reported as > 40 µM (active).

With `CSc1ncc(Cl)c(C(=O)Nc2cccc3ccccc23)n1` the CC50 [1] was > 40 µM (active).

For `CCOC(=O)C1CCN(C(=O)C(C)N(c2ccc(Oc3ccccc3)cc2)S(C)(=O)=O)CC1` (stereo unspecified), the AC50 [2] was 9.34 µM (active), the EC50 (Ion channel NompC) was > 29.9 µM (not active) and the AC50 [3] was > 70 µM (inactive). The EC50 (Mucolipin-3) was 6.8 µM (active).

For `COC(=O)NC(c1ccccc1)C(C#N)C(=O)OC` (stereo unspecified), the AC50 (Cytochrome P450 2C19) was 3.16 µM (inconclusive).

In the case of `COc1ccc(-c2nc3ccc(C)cn3c2NCc2ccc3c(c2)OCO3)cc1`, the EC50 [4] is reported as > 100 µM (not active).

For `Cc1cc(-c2nnc(S)n2/N=C/c2cccs2)[nH]n1`, the IC50 (Large T antigen) was 55 µM (active), the IC50 [5] was 87.8 µM (active) and the IC50 [6] was > 100 µM (inactive). For the same compound, the IC50 [7] was 2.9 µM (active).

In the case of `C=C(NNc1c(Cl)c(Cl)nc(C(=O)O)c1Cl)c1ccc(O)cc1`, the IC50 (NADPH oxidase 1) is reported as 4.45 µM (active).

For `C[C@@H]1CN([C@@H](C)CO)C(=O)c2cccc(NC(=O)c3ccc(-c4nccs4)cc3)c2O[C@@H]1CN(C)C(=O)Nc1cccc2ccccc12`, the AC50 [8] was 53.3 µM (active), the AC50 [9] was > 39 µM (inactive) and the AC50 [10] was 2.9 µM (active). The AC50 [11] was 0.334 µM (active), the AC50 [12] was 0.733 µM (active) and the AC50 [13] was 0.956 µM (active).

With `O=S(=O)(c1ccc(-c2csc(Nc3ccc(F)cc3)n2)cc1)N1CCCC1` the AC50 (CAAX prenyl protease 2) was 19.8 µM (active) and the IC50 (Fatty acid synthase) was 15.2 µM (active).

Source: ChEMBL document CHEMBL1201862, “PubChem BioAssay data set” (2004)
